Tests used:
[1] = target: T1, OAT1 (Homo sapiens, UniProt Q4U2R8); experiment: OAT1 6-carboxyfluorescein transport in transfected HEK-293T cells; type: cell-based; conditions: 5 μM 6-carboxyfluorescein, 2 min; mean ± SEM; read-out: Potency (IC50) against OAT1
T1 construct: host or cells: HEK-293T, transient transfection
T1 sequence (Q4U2R8 1-563): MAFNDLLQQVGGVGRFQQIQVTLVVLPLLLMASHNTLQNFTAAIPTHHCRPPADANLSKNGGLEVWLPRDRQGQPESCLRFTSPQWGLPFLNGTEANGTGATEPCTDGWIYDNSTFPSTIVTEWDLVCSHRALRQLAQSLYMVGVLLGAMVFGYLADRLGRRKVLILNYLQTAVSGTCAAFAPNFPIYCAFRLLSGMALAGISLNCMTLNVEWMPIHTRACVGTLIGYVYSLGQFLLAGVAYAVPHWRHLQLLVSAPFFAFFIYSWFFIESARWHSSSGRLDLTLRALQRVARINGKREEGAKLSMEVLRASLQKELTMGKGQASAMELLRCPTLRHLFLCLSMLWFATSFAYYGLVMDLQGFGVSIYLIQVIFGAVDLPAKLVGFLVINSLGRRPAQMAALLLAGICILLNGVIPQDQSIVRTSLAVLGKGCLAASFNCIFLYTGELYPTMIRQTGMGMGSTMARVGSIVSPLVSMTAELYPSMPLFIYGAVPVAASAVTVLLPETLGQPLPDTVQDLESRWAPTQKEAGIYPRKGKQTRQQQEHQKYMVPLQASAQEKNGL
Procedure: The cells were washed three times in a buffer containing 125 mM NaCl and 25 mM HEPES, pH 7.3, and then lysed in 1 M sodium hydroxide prior to fluorescence measurement.

[2] = target: T2, ABCG2 (Homo sapiens, UniProt Q9UNQ0); experiment: ABCG2 genistein net B→A flux in Caco-2 monolayers; type: cell-based
T2 construct: monolayers of Caco-2 cells expressing ABCG2 were grown on a permeable support; endogenous in cells; host or cells: Caco-2
T2 sequence (Q9UNQ0 1-655): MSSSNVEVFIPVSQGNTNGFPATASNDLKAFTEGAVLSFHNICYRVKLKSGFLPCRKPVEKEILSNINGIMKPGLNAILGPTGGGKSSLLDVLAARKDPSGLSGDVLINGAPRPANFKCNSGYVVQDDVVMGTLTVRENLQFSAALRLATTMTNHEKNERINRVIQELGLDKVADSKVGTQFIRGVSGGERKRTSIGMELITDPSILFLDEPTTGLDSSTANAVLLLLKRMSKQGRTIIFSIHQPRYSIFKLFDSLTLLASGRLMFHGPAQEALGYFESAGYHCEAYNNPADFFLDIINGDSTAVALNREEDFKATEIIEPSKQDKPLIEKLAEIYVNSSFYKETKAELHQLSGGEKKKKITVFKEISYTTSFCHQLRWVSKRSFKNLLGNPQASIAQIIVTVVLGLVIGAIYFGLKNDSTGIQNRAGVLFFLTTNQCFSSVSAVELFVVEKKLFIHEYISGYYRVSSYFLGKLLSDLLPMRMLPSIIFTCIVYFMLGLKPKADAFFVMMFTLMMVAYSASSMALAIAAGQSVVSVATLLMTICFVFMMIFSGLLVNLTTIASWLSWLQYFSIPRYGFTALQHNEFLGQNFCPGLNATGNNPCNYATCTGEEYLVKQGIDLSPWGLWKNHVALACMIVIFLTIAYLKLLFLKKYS
Procedure: For ABCG2, monolayers of Caco-2 cells expressing ABCG2 were grown on a permeable support ([…] membranes) in 24-transwell plates. […] Each treatment was assayed in triplicate: [^3H]-genistein substrate at 2 nM was then added for an additional 120 minutes at 37 °C. For basolateral-to-apical (B → A) flux measurements, genistein was placed in the basolateral compartment only (donor well) and a sample was taken after the 120-minute incubation period from the apical compartment (receiver well). For apical-to-basolateral (A → B) flux measurements, genistein was placed in the apical compartment only (donor well) and a sample was taken after the 120-minute incubation period from the basolateral compartment (receiver well). Samples were then subjected to scintillation counting. The inhibition of BCRP/ABCG2 was then calculated by the net B → A flux method. […]
The net transport in the B → A direction was determined by subtracting the substrate flux in the A → B direction from that in the B → A direction: NetB→Aflux=PappB→A‐PappA→B.
Percent inhibition is calculated by dividing the Net (B → A) flux in the presence of the inhibitor by the Net (B → A) flux in the absence of the inhibitor (inh): PercentInhibition=100‐100*NetB→Ainh/meanNetB→A.

[3] = test system: HepG2 cells; experiment: Mitochondrial toxicity assay (JC-1 mitochondrial membrane potential); type: cell-based, human; conditions: HepG2, highest concentration tested 33 μM
Procedure: HepG2 cells were counted via hemocytometer and diluted into equal volumes of serum-free Opti-MEM (Life Technologies) and JC-1 Staining Solution (Sigma catalog number CS0390) at 300,000 cells/mL in the presence of 2.5 μg/mL JC-1. Cells were incubated at 37 °C and 5 % CO2 for 20 minutes, rinsed once with Hank's Balanced Salt Solution, and resuspended to the same concentration in serum-free Opti-MEM. Cells were then seeded into 96-well black-sided clear-bottom tissue culture plates at 30,000 cells/100 μL/well. Three replicates per experimental condition group were used. Compound was added with the final dimethyl sulfoxide (DMSO) concentration at 0.5 %. After 2 hours at 37 °C and 5 % CO2, medium was aspirated and plates were read on a Gemini EM spectrofluorometer (Molecular Devices). Fluorescence of JC-1 monomers was monitored by excitation at 490 nm and emission at 530 nm (green) and of aggregates by excitation at 525 nm and emission at 590 nm (red). The ratio of J-aggregates to monomers was calculated, with a lower ratio indicating increased cell toxicity. The percent change in mitochondrial membrane potential (Ψm) was calculated as follows: […]

[4] = test system: healthy volunteers; experiment: Clinical effect on serum uric acid (phase 1 RDEA594-109); type: in vivo, human
Procedure: In each treatment period, plasma samples were collected within 30 minutes before dosing (pre-dose) and at 0.5, 1, 1.5, 2, 3, 4, 5, 6, 8, 10, 12, 16, 24, 30, 36, and 48 hours post-dose. Urine (total catch) was collected pretreatment at hours –24 to –18, –18 to –12, and –12 to 0, and post-dose at hours 0 to 6, 6 to 12, 12 to 24, 24 to 30, 30 to 36, and 36 to 48.
Serum was collected within 30 minutes prior to drug administration, and at 6, 12, 16, 24, 30, 36, and 48 hours after dosing. Serum urate levels and PD parameters were assayed and calculated by Covance Clinical Research Unit as described above.

[5] = cited from earlier work

O=C(O)CSc1nnc(Br)n1-c1ccc(C2CC2)c2ccccc12 [Lesinurad, 2-((5-bromo-4-(4-cyclopropylnaphthalen-1-yl)-4H-1,2,4-triazol-3-yl)thio) acetic acid]
IC50 [1]: 3.9 ± 0.94 µM
IC50 ([2]; Caco-2, 2 nM [3H]-genistein, 120 min, read-out: Potency against ABCG2): > 100 µM
Effect on ABCG2 activity ([2]; Caco-2, at up to 100 μM): no effect
Mitochondrial toxicity [3]: no mitochondrial toxicity
Reduction of sUA ([4]; single 200-mg dose, after 6 hours, p < 0.001): 33%
Maximum reduction of sUA ([4]; single 600-mg dose, after 6 hours): 42%
Reduction of sUA ([4]; single 600-mg dose, after 24 hours): 31%
Fraction of compound excreted via urine [5]: approximately one third
